Measurements taken from patent publication US8003630B2, “Combinatorial therapies for the treatment of neoplasias using the opioid growth factor receptor” (The Penn State Research Foundation, priority 2004, dated 2011).

Tests used:
CAL-27 cells = assay: Cell proliferation assay of CAL-27 cells; type: cell-based, human; settings: 48 hr; for fewer cells than in control cultures: OGF 10^−6 M and/or paclitaxel 10^−10 M
Method: (§1) The UM-SCC-1 cell line (SCC-1) was derived from a well-differentiated recurrent squamous cell carcinoma in the floor of the mouth of a person (25). This cell line was obtained from The University of Michigan, Cancer Research Laboratory (Thomas E. Carey, Ph.D., Director). CAL-27 human squamous cell carcinoma cell line, derived from a poorly differentiated carcinoma of the tongue in a person ([…]), was obtained from the American Type Culture Collection (Manassas, Va.). Both cell lines were grown in Dulbecco's MEM (modified) media supplemented with 10% fetal calf serum, 1.2% sodium bicarbonate, and antibiotics (5,000 Units/ml penicillin, 5 mg/ml streptomycin, 10 mg/ml neomycin). The cell cultures were maintained in a humidified atmosphere of 7% CO2/93% air at 37° C.
(§2) Cells were seeded at equivalent amounts into either 6-well or 96-well plates (Falcon) and counted 24 hr later to determine plating efficiency.
(§3) Cell number was recorded either by using the MTS proliferation bioassay (Cell Titer 96 One Solution, Promega, Madison, Wis.) and measuring absorbency after 4 hr on a Biorad (Model 3550) plate reader at 490 nm with a 750 nm background absorbance screening, or by directly counting cells. The MTS assay utilized 10 wells/treatment. For manual counts, cells were harvested by trypsinization with 0.25% trypsin/0.53 mM EDTA, centrif uiged, and counted with a hemacytometer. Cell viability was determined by trypan blue staining. At least two aliquots per well, and 4-10 wells/treatment, were counted at each time for manual counting.

SCC-1 cells [1] = assay: Apoptosis, caspase-3 activity by flow cytometry in SCC-1 cells; type: cell-based, human; settings: for percentage of caspase-3 positive cells: SCC-1, one day of treatment
Method: Caspase-3-FITC positive staining was used to characterize early stages of apoptosis (29). SCC-1 cells were seeded into 6-well plates and treated with drugs beginning 24 hr later; drugs and media were replaced daily. Cells were harvested after 1, 3 and 6 days of drug treatment, and prepared according to manufacturer's recommendations for FACS analysis (FACS cell sorter with a 15 mW argon ion laser at 488 nm; Becton, Dickinson and Company, Franklin Lakes, N.J.). […] Three samples from each treatment were analyzed at each time point. The percent gated cells recorded by flow cytometry was considered caspase positive.

SCC-1 cells [2] = assay: DNA synthesis, BrdU incorporation into SCC-1 cells; type: cell-based, human; settings: 3 days of drug treatment
Method: To examine DNA synthesis, SCC-1 cells were seeded onto 22 mm diameter coverglasses placed in 6-well plates (3×10^3 cells/coverglass). […] Three hours prior to fixing cells, 30 μM BrdU was added to cultures. At appropriate times, cells were rinsed, fixed in 10% neutral buffered formalin, and stained with antibodies to BrdU (Roche, Indianapolis, Ind.). The number of positive cells was recorded using fluorescence microscopy. At least 1000 cells/treatment at each time were counted.

SCC-1 SCCHN cells = assay: SCC-1 SCCHN tumors in athymic nude mice (Examples 1c and 2)
Method: Tumor dimensions were recorded every day beginning on the day that the tumors were considered measurable.

SCC-1 cells [3] = assay: Growth curves of SCC-1 cells, cell proliferation (MTT) assay, absorbency
Source text: Cells were counted using a standard MTT assay. In general, each data point represents the average absorbency taken from 10 wells/treatment; error bars represent the S.E.M.

SCC-1 cells [4] = assay: Cell proliferation assays of SCC-1 cells (MTS or cell counting), Example 8; type: cell-based, human; settings: for rates of growth over the 4 day period: slopes of growth curves; for difference in cell number between reversal group and group continuing drug exposure: within 48 hr after withdrawal
Method: as §1, §2
The dosage of carboplatin selected was based on previous reports (27, 28), as well as preliminary studies in our laboratory.
as §3
For some experiments, the rate of growth over a 96-hr period of time was calculated using linear regression analyses. The slopes of the lines (number of cells/hr) were compared by analysis of variance. All calculations were performed with GraphPad Prism software.

OGFr = biological target: T1, OGFr (Homo sapiens, UniProt Q9NZT2); assay: Receptor binding analysis of OGFr in SCC-1 tumors from treated mice; settings: OGFr in SCC-1 tumors from mice of the treatment group; means ± SEM
T1 construct: Tumor tissues from some mice in each treatment group were removed at the time of death; from tissue; host or cells: SCC-1 squamous cell carcinoma xenograft tumors grown subcutaneously in nude mice
T1 sequence (Q9NZT2 1-677): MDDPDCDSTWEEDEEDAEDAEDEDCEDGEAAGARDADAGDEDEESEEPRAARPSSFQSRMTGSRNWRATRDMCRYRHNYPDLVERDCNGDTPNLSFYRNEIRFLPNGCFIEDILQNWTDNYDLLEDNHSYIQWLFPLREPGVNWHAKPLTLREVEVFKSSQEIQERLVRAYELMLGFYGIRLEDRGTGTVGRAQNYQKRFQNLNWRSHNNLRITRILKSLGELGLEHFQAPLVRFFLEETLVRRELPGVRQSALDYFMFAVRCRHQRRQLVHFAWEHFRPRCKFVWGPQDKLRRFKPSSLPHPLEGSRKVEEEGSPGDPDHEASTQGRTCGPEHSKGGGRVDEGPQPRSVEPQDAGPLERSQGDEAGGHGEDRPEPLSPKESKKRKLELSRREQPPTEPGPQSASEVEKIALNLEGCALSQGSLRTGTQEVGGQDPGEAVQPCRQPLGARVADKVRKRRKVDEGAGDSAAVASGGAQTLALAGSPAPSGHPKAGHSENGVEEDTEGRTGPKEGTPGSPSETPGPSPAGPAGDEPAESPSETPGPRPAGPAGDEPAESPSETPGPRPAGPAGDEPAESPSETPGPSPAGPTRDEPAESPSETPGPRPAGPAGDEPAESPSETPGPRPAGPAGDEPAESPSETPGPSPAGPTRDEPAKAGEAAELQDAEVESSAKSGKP
Method: Tumor tissues from some mice in each treatment group were removed at the time of death, washed free of blood and connective tissue, and immediately frozen in liquid nitrogen. Tissues were assayed following the procedures published previously [ 16]. Saturation binding isotherms were generated using GraphPad Prism software; binding affinity (Kd) and capacity (Bmax) values were provided by the computer software.

[5] = 48 h, paclitaxel 10^−7 M and/or OGF 10^−6 M
[6] = 72 h, paclitaxel 10^−7 M and/or OGF 10^−6 M
[7] = 96 h, paclitaxel 10^−7 M and/or OGF 10^−6 M
[8] = SCC-1, 48 hr, OGF 10^−6 M and/or paclitaxel 10^−8 M
[9] = SCC-1, 72 hr, OGF 10^−6 M and/or paclitaxel 10^−8 M
[10] = SCC-1, 96 hr, OGF 10^−6 M and/or paclitaxel 10^−8 M

Row | Compound | fewer cells than in control cultures (CAL-27 cells) [%] | percentage of caspase-3 positive cells (SCC-1 cells [1]) | decrease in the number of BrdU positive cells from control levels (SCC-1 cells [2]) [%] | decrease in cell number from control levels (SCC-1 cells [3]; [5]) [%] | decrease in cell number from control levels (SCC-1 cells [3]; [6]) [%] | decrease in cell number from control levels (SCC-1 cells [3]; [7]) [%] | reduction of cell number from control levels (SCC-1 cells [4]; [8]) | reduction of cell number from control levels (SCC-1 cells [4]; [9]) [%] | reduction of cell number from control levels (SCC-1 cells [4]; [10]) [%] | rates of growth over the 4 day period (SCC-1 cells [4]; SCC-1) | difference in cell number between reversal group and group continuing drug exposure (SCC-1 cells [4]; SCC-1) | Bmax, fmol/mg protein (OGFr) [fmol/mg protein] | also measured
1 | CC(=O)O[C@H]1C(=O)[C@@]2(C)[C@H]([C@H](OC(=O)c3ccccc3)[C@]3(O)C[C@H](OC(=O)[C@H](O)[C@@H](NC(=O)c4ccccc4)c4ccccc4)C(C)=C1C3(C)C)[C@]1(OC(C)=O)CO[C@@H]1C[C@@H]2O [paclitaxel] | 35 | negligible | 24 | 34.4 | 58 | 70 | ~33% | 25 | 51 | notably reduced from control values | did not differ | 27.8 ± 1.6 | growth depressed from control levels (CAL-27 cells; paclitaxel 10^−7 M): 66%; growth depressed from control levels (CAL-27 cells; paclitaxel 10^−8 M): 53%; growth depressed from control levels (CAL-27 cells; paclitaxel 10^−9 M): 44%; growth depressed from control levels (CAL-27 cells; paclitaxel 10^−10 M): 22%; fraction of SCCHN cells apoptotic (SCC-1 cells [1]; 6 days of drug exposure): over one-half; average life span (SCC-1 SCCHN cells; 50-day study): 34.3 ± 3.1 days; mice with tumors (SCC-1 SCCHN cells; day 13 after tumor cell inoculation): 66%; observations on organs after premature death (SCC-1 SCCHN cells; histological analysis): distended abdomens with associated megacolon; mice that had died by day 40 (SCC-1 SCCHN cells; nude mice with SCC-1 tumors): 75%; body weight less than controls (SCC-1 SCCHN cells; nude mice with SCC-1 tumors, day 20): 11%; body weight less than controls, OGF and paclitaxel/OGF treated mice (SCC-1 SCCHN cells; nude mice with SCC-1 tumors, day 50): 28%; decrease in cell number from control levels (SCC-1 cells [3]; 24 h, paclitaxel 10^−7 M and/or OGF 10^−6 M): 14.2%; decrease in cell number from control levels (SCC-1 cells [3]; 96 h, paclitaxel 10^−8 M alone or with OGF 10^−6 M): 19.3%; inhibition at 0.01 µM (SCC-1 cells [4]; Homo sapiens, read-out: inhibition of cell growth relative to control levels): 8.8 to 26%
2 | [Met^5]-enkephalin [OGF] | 25 | negligible | 61 | 11.9 | 6.7 | 12.7 | approximately 10% | 10 | 23 | notably reduced from control values | 16% | 27.2 ± 2.2 | latency time for measurable (62.5 mm^3) tumors (SCC-1 SCCHN cells; after tumor cell inoculation): ≤ 17 days; latency to a visible tumor (SCC-1 SCCHN cells; after tumor cell inoculation): ≤ 11 days; reduction of tumor size versus control mice (SCC-1 SCCHN cells; second timepoint (4th day of measurable tumors)): 26%; delay in visible tumor development (SCC-1 SCCHN cells; versus control mice): ~4 days; reduction of cell number from control levels (SCC-1 cells [4]; SCC-1, MTS, 48-96 hr, OGF 10^−6 M alone or with carboplatin 10^−7 M): 8-10%; decrease from control levels in absorbency readings (SCC-1 cells [4]; SCC-1, opioids 10^−6 M daily): 19%
